Measurements as given in patent publication US8247556B2, “Method for preparing 6-substituted-7-aza-indoles” (Amgen Inc., priority 2005, dated 2012).
pIC50: −log10 of the molar value.

Columns and labels:
[1] = molecular target: T1, CYP 3A4 (Homo sapiens, UniProt P08684); experiment: Human Liver Microsome CYP 3A4 Inhibition; assay type: in vitro ADME; conditions: human liver microsomes, midazolam substrate; read-out: inhibited CYP3A4 microsomes, IC50
T1 construct: followed by 222.2 ml of 20 mg/mL HLM (BD Gentest); tissue BD Gentest; host or cells: human liver microsomes
Description: Determining the IC-50 for Human Liver Microsome CYP 3A4 Inhibition
Postassium Phosphate Buffer pH 7.4 (39.667 mL) is chilled in an ice bath and added to a 50 ml plastic tube. A 2 mM midazolam solution is prepared. 111.1 ul of 2 mM midazolam is added to the buffer followed by 222.2 ml of 20 mg/mL HLM (BD Gentest). The incubation mixture was gently inverted and equilibrated at 37° C. for 5 min. A stock inhibitor solution is prepared, such as in DMSO. Incubation mixture (801 ul) is added into 96-well, 1.2 mL plastic tubes. Inhibitor is added at various concentrations (e.g. 30 uM to 120 nM). The tubes are sealed and mix by inverting 5 times gently. The incubation mixture containing inhibitor (270 uL) is added by aliquot into wells of a 1 mL, 96-well block (duplicate). The block is placed into a 37° C. water bath and equilibrated for 3 min. 10 mM NADPH (30 ml) is added to all samples. After 5 minutes, the reactions are stopped by adding 300 ml of Quench Solution [0.1% TFA in CH3CN]. 1′-OH-Midazolam-d313C (2 mg/mL 30 uL) is added, the block is gently vortexed then centrifuged at 3000 rpm for 10 minutes at 4° C. 50 μL of supernatant from all samples is added by aliquot into a shorter, 96-well block. The aliquoted supernatants are pooled with other assay(s) and HPLC Grade Water (50 ul) is added to all samples. After covering and shaking by vortex gently for 2 minutes, the solutions were analyzed by LC-MS (API 3000,5% MeOH w/0.1% AcOH to 95% MeOH w/0.1% AcOH). 37 nM ketoconazole is used as a control.

[2] = system: VEGF-stimulated HUVEC proliferation (Human Umbilical Vein Endothelial cells); experiment: HUVEC Proliferation Assay; assay type: cell-based; conditions: VEGF 50 ng/mL, 72 h, CyQuant fluorescent dye, read-out: inhibited VEGF-stimulated HUVEC proliferation at a level
Description: Human Umbilical Vein Endothelial cells are purchased from Clonetics, Inc., as cryopreserved cells harvested from a pool of donors. These cells, at passage 1, are thawed and expanded in EBM-2 complete medium, until passage 2 or 3. The cells are trypsinized, washed in DMEM+10% FBS+antibiotics, and spun at 1000 rpm for 10 min. Prior to centrifugation of the cells, a small amount is collected for a cell count. After centrifugation, the medium is discarded, and the cells are resuspended in the appropriate volume of DMEM+10% FBS+antibiotics to achieve a concentration of 3×10^5 cells/mL. Another cell count is performed to confirm the cell concentration. The cells are diluted to 3×10^4 cells/mL in DMEM+10% FBS+antibiotics, and 100 μL of cells are added to a 96-well plate. The cells are incubated at 37° C. for 22 h.
Prior to the completion of the incubation period, compound dilutions are prepared. Five-point, five-fold serial dilutions are prepared in DMSO, at concentrations 400-fold greater than the final concentrations desired. 2.5 μL of each compound dilution are diluted further in a total of 1 mL DMEM+10% FBS+antibiotics (400× dilution). Medium containing 0.25% DMSO is also prepared for the 0 μM compound sample. At the 22 h time point, the medium is removed from the cells, and 100 μL of each compound dilution is added. The cells are incubated at 37° C. for 2-3 h.
During the compound pre-incubation period, the growth factors are diluted to the appropriate concentrations. Solutions of DMEM+10% FBS+antibiotics, containing either VEGF or bFGF at the following concentrations: 50, 10, 2, 0.4, 0.08, and 0 ng/mL are prepared. For the compound-treated cells, solutions of VEGF at 550 ng/mL or bFGF at 220 ng/mL for 50 ng/mL or 20 ng/mL final concentrations, respectively, are prepared since 10 μL of each will be added to the cells (110 μL final volume). At the appropriate time after adding the compounds, the growth factors are added. VEGF is added to one set of plates, while bFGF is added to another set of plates. For the growth factor control curves, the media on wells B4-G6 of plates 1 and 2 are replaced with media containing VEGF or bFGF at the varying concentrations (50-0 ng/mL). The cells are incubated at 37° C. for an additional 72 h.
At the completion of the 72 h incubation period, the medium is removed, and the cells are washed twice with PBS. After the second wash with PBS, the plates are tapped gently to remove excess PBS, and the cells are placed at −70° C. for at least 30 min. The cells are thawed and analyzed using the CyQuant fluorescent dye (Molecular Probes C-7026), following the manufacturer's recommendations. The plates are read on a Victor/Wallac 1420 workstation at 485 nm/530 nm (excitation/emission). Raw data are collected and analyzed using a 4-parameter fit equation in XLFit. IC50 values are then determined.

[3] = molecular target: T2, CYP 2D6 (Homo sapiens, UniProt P10635); experiment: Human Liver Microsome CYP 2D6 Inhibition; assay type: in vitro ADME; conditions: human liver microsomes, bufuralol substrate; read-out: inhibited CYP2D6 microsomes, IC50
T2 construct: followed by 555.6 ml of 20 mg/mL HLM (BD Gentest); tissue BD Gentest; host or cells: human liver microsomes
Description: Determining the IC-50 for Human Liver Microsome CYP 2D6 Inhibition
Postassium Phosphate Buffer pH 7.4 (39.333 mL) is chilled in an ice bath and added to a 50 ml plastic tube. A 3.2 mM bufuralol solution is prepared. 111.1 ul of 3.2 mM bufuralol is added to the buffer followed by 555.6 ml of 20 mg/mL HLM (BD Gentest). The incubation mixture was gently inverted and equilibrated at 37° C. for 5 min. A stock inhibitor solution is prepared, such as in DMSO. Incubation mixture (801 ul) is added into 96-well, 1.2 mL plastic tubes. Inhibitor is added at various concentrations (e.g. 30 μM to […]). The tubes are sealed and mix by inverting 5 times gently. The incubation mixture containing inhibitor (270 μL) is added by aliquot into wells of a 1 mL, 96-well block (duplicate). The block is placed into a 37° C. water bath and equilibrated for 3 minutes. 10 mM NADPH (30 ml) is added to all samples. After 5 min, the reactions are stopped by adding 300 ml of Quench Solution [0.1% TFA in CH3CN]. 1′-OH-bufuralol-d9 (750 ng/mL 30 μL) is added, the block is gently vortexed then centrifuged at 3000 rpm for 10 min at 4° C. 50 μL of supernatant from all samples is added by aliquot into a shorter, 96-well block. The aliquoted supernatants are pooled with other assay(s) and HPLC Grade Water (50 μL) is added to all samples. After covering and shaking by vortex gently for 2 minutes, the solutions were analyzed by LC-MS (API 3000, 5% MeOH w/0.1% AcOH to 95% MeOH w/0.1% AcOH). 500 nM quinidine is used as a control.

T2 sequence (P10635 whole entry): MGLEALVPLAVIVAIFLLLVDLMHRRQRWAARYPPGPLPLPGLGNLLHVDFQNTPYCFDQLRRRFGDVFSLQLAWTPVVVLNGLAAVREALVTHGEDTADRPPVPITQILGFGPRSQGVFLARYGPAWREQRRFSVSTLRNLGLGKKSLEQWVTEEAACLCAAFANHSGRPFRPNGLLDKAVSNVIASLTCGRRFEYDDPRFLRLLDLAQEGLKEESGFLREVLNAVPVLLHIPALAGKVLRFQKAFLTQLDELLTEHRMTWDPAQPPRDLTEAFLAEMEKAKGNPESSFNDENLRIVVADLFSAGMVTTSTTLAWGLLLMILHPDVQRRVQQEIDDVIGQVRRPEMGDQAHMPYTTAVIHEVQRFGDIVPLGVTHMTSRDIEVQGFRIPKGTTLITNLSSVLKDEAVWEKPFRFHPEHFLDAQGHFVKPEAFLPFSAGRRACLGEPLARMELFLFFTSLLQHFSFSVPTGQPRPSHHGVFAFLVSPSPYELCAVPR
T1 sequence (P08684 whole entry): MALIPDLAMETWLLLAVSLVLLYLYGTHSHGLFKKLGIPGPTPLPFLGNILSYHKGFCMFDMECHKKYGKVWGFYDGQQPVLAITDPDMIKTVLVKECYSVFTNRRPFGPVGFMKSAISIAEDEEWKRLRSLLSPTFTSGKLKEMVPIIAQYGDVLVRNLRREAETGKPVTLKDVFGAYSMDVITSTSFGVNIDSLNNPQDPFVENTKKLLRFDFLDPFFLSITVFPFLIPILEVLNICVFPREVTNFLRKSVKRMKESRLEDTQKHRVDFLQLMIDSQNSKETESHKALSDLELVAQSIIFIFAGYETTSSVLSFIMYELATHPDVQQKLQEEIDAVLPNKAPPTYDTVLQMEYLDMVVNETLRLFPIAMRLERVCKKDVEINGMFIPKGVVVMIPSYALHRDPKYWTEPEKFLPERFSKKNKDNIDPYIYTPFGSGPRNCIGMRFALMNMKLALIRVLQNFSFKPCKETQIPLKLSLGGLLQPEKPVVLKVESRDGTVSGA

| SMILES | pIC50 [1] | pIC50 [2] | pIC50 [3] |
| --- | --- | --- | --- |
| CC(C)c1nc2cc(NC(=O)c3cc(F)cnc3NCc3ccnc4[nH]ccc34)ccc2s1 [Example 103, 5-fluoro-N-(2-(1-methylethyl)-1,3-benzothiazol-5-yl)-2-((1H-pyrrolo[2,3-b]pyridin-4-ylmethyl)amino)-3-pyridinecarboxamide] | < 4.70 | > 6.30 | – |
| O=C(Nc1ccc(C(F)(F)F)cc1)c1cc(F)cnc1NCc1ccnc2[nH]ccc12 [Example 78, 5-fluoro-2-((1H-pyrrolo[2,3-b]pyridin-4-ylmethyl)amino)-N-(4-(trifluoromethyl)phenyl)-3-pyridinecarboxamide] | < 4.70 | – | – |
| CN1CCC[C@@H]1COc1cc(NC(=O)c2cccnc2NCc2ccnc3[nH]ccc23)ccc1C(F)(F)F [Example 68, N-(3-((((2R)-1-methyl-2-pyrrolidinyl)methyl)oxy)-4-(trifluoromethyl)phenyl)-2-((1H-pyrrolo[2,3-b]pyridin-4-ylmethyl)amino)-3-pyridinecarboxamide] | < 4.70 | > 6.30 | – |
| CC(=O)N1CC(C)(C)c2ccc(NC(=O)c3cc(F)cnc3NCc3ccnc4[nH]ccc34)cc21 [Example 80, N-(1-acetyl-3,3-dimethyl-2,3-dihydro-1H-indol-6-yl)-5-fluoro-2-((1H-pyrrolo[2,3-b]pyridin-4-ylmethyl)amino)-3-pyridinecarboxamide] | – | > 6.30 | < 4.70 |
| CC(C)Oc1ccc(NC(=O)c2cc(F)cnc2NCc2ccnc3[nH]ccc23)cc1 [Example 95, 5-fluoro-N-(4-((1-methylethyl)oxy)phenyl)-2-((1H-pyrrolo[2,3-b]pyridin-4-ylmethyl)amino)-3-pyridinecarboxamide] | < 4.70 | – | – |
| CC1(C)CNCc2cc(NC(=O)c3cccnc3NCc3c[nH]c4ncccc34)ccc21 [Example 38, N-(4,4-Dimethyl-1,2,3,4-tetrahydroisoquinolin-7-yl)-2-[(1H-pyrrolo[2,3-b]pyridin-3-ylmethyl)amino]nicotinamide] | – | > 6.30 | < 4.70 |
| CC(=O)N1CC(C)(C)c2ccc(NC(=O)c3cccnc3NCc3ccnc4[nH]ccc34)cc21 [Example 6, N-(1-Acetyl-3,3-dimethyl-2,3-dihydro-1H-indol-6-yl)-2-[(1H-pyrrolo[2,3-b]pyridin-4-ylmethyl)amino]nicotinamide] | – | > 6.30 | < 4.70 |
| CC1(C)CC(=O)Nc2cc(NC(=O)c3cc(F)cnc3NCc3ccnc4[nH]ccc34)ccc21 [Example 81, N-(4,4-dimethyl-2-oxo-1,2,3,4-tetrahydro-7-quinolinyl)-5-fluoro-2-((1H-pyrrolo[2,3-b]pyridin-4-ylmethyl)amino)-3-pyridinecarboxamide] | – | > 6.30 | < 4.70 |
| CC1(C)CC(=O)Nc2cc(NC(=O)c3cccnc3NCc3ccnc4[nH]ccc34)ccc21 [Example 12, N-(4,4-Dimethyl-2-oxo-1,2,3,4-tetrahydroquinolin-7-yl)-2-[(1H-pyrrolo[2,3-b]pyridin-4-ylmethyl)amino]nicotinamide] | – | > 6.30 | < 4.70 |
| CC1(C)CN(S(C)(=O)=O)c2cc(NC(=O)c3cccnc3NCc3ccnc4[nH]ccc34)ccc21 [Example 61, N-(1-Methanesulfonyl-3,3-dimethyl-2,3-dihydro-1H-indol-6-yl)-2-[(1H-pyrrolo[2,3-b]pyridin-4-ylmethyl)-amino]-nicotinamide] | – | > 6.30 | < 4.70 |
| CC(=O)N1CC(C)(C)c2ccc(NC(=O)c3cccnc3NCc3ccnc4c3CCN4)cc21 [Example 29, N-(1-Acetyl-3,3-dimethyl-2,3-dihydro-1H-indol-6-yl)-2-[(2,3-dihydro-1H-pyrrolo[2,3-b]pyridin-4-ylmethyl)amino]nicotinamide] | – | > 6.30 | < 4.70 |
| CC1(C)CN(C(=O)CN)c2cc(NC(=O)c3cccnc3NCc3ccnc4[nH]ccc34)ccc21 [Example 21, N-(1-Glycyl-3,3-dimethyl-2,3-dihydro-1H-indol-6-yl)-2-[(1H-pyrrolo[2,3-b]pyridin-4-ylmethyl)amino]nicotinamide] | – | > 6.30 | < 4.70 |
| CC(=O)N1Cc2cc(NC(=O)c3cccnc3NCc3ccnc4[nH]ccc34)ccc2C(C)(C)C1 [Example 13, N-(2-Acetyl-4,4-dimethyl-1,2,3,4-tetrahydroisoquinolin-7-yl)-2-[(1H-pyrrolo[2,3-b]pyridin-4-ylmethyl)amino]nicotinamide] | – | > 6.30 | < 4.70 |
| CC1(C)CCNc2cc(NC(=O)c3cccnc3NCc3ccnc4c3CCN4)ccc21 [Example 31, 2-[(2,3-Dihydro-1H-pyrrolo[2,3-b]pyridin-4-ylmethyl)amino]-N-(4,4-dimethyl-1,2,3,4-tetrahydroquinolin-7-yl)nicotinamide] | – | > 6.30 | < 4.70 |
| [2H]C1([2H])CC(C)(C)c2ccc(NC(=O)c3cccnc3NCc3ccnc4[nH]ccc34)cc2N1 [Example 69, N-(2,2-Dideutero-4,4-dimethyl-1,2,3,4-tetrahydro-quinolin-7-yl)-2-[(1H-pyrrolo[2,3-b]pyridin-4-ylmethyl)-amino]-nicotinamide] | – | > 6.30 | < 4.70 |
